This note sets out measurements from US20040116336A1, “Peptide derivatives” (priority 2002, published 2004).

For assay [1], the target named is T1, APJ (Homo sapiens, UniProt P35414).
T1 construct: expressed in transfected cells; host or cells: CHO (CHO-A10; clone 6 for the cAMP assay)
T1 sequence (P35414 1-380): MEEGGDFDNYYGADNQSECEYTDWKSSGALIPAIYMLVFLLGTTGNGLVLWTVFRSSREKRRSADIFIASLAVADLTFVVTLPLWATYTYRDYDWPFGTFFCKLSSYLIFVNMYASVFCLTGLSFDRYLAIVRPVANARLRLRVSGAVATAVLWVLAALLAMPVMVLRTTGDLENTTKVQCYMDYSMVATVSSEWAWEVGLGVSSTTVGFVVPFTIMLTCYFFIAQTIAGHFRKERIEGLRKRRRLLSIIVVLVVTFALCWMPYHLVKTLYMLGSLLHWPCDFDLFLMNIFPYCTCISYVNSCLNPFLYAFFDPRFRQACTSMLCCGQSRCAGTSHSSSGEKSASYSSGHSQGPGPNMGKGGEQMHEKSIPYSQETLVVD
The experiment in a line: Inhibitory activity on forskolin-stimulated cAMP production in CHO-A10 clone 6 cells. It counts as cell-based. Here is the method: Measurement of an Inhibitory Activity on Forskolin-Stimulated cAMP Production
Hanks' balanced salt solution (HBSS) containing 0.2 mM 3-isobutyl-1-methylxanthine (IBMX) and 0.05% bovine serum albumin was prepared as an assay buffer, and each well was washed twice with 500 μl assay buffer and pre-incubated at 37° C. for 30 minutes. Further, each well was washed once with 500 μl assay buffer, and a sample dissolved in the assay buffer containing 1 μM forskolin was added at a volume of 500 μl/well and incubated at 37° C. for 30 minutes. Wells incubated with the assay buffer not containing forskolin were prepared in the same manner in order to determine the basal level of cellular cAMP production, while wells incubated with the assay buffer containing forskolin were also prepared in order to determine the maximum level of cAMP production stimulated with forskolin. After incubation was finished, each well was washed once with 500 μl assay buffer, and 500 μl lysis buffer 1B attached to a cAMP EIA system from Amersham was added to each well, to extract cAMP. According to the protocol of the kit, 100 μl of each extract was used to determine the level of cAMP. For the inhibitory activity of the sample on cAMP production, the difference (inhibited cAMP production) between the maximum level and the level of cAMP in the sample-containing wells was determined, and the inhibitory activity was expressed as percentage relative to the increased level of cAMP production stimulated with forskolin (that is, the difference between the maximum level and basal level), and from this dose-reaction curve, the EC50 was determined.
In general terms: Cyclic AMP is a second messenger, typically raised through Gs and lowered through Gi signalling.

Assay [2] addresses T1, APJ. The experiment in a line: Receptor binding assay-2 (compound in Reference Example 2 used). Here is the method: This product was mixed with an equal volume of an assay buffer (50 mM Tris-HCl/pH 7.5, 5 mM EDTA, 0.5 mM PMSF, 20 μg/ml leupeptin, 0.1 μg/ml pepstatin A, 4 μg/ml E-64 (Peptide Research Laboratory, Co.), 0.1% bovine serum albumin) and stored at −30° C. before use.
CHO-A10 cells were cultured, recovered with PBS containing 5 mM EDTA from a culture vessel, and suspended in the above-mentioned assay buffer not containing bovine serum albumin. The cells were homogenized 3 times at 12,000 rpm for 15 seconds by a Polytron homogenizer (manufactured by Kinematica Inc.) and then centrifuged (1000×g, 4° C., 10 minutes), and the supernatant was recovered. The precipitates were subjected again to the same procedure as above, and the respective supernatants were combined and centrifuged at 100,000×g, 4° C. for 1 hour, to recover precipitates (membrane fraction). The membrane fraction was suspended again in a small amount of the buffer, homogenized with a Teflon homogenizer and stored at −80° C. before use.
Binding assay was carried out under the following conditions. […] Measurement of non-specific binding was carried out using a well containing 1 μM unlabeled compound in place of the test sample. After the incubation was finished, a cell harvester (Packard) adapted to 96 wells and a filter unit (GF/C, Packard) were used for separation thereby capturing the membrane fraction on the filter. After the filter was sufficiently dried, Microcinti 0 (Packard) was added thereto, and using Top Count (Packard), the amount of the labeled material captured together with the membrane fraction on the filter was measured.

The mark [3] stands for this setting: compound in Reference Example 2 used as ligand, read-out: IC50.

Like-named read-outs stand apart in the source and are kept apart here. Starred links: 1 amine or outer side, 2 acyl side, 3 side chain; linkers in the order of their positions; H or OH if unused. Non-standard residues stand in square brackets, D forms with d. Residues, ends and D or L forms follow the SMILES beside them. No end group written: not given here. *: point of attachment. X1 = O=C([C@H](Cc1ccc2ccc3cccc4ccc1c2c34)N[*:1])[*:2]; Phe(4-Cl) = N[C@@H](Cc1ccc(Cl)cc1)C(=O)O; Adipoyl = O=C(CCCCC(=O)[*:2])[*:1]; Lys(Me2) = CN(C)CCCC[C@H](N)C(=O)O; Cha = N[C@@H](CC1CCCCC1)C(=O)O; Morpholide = C1CN(*)CCO1; Dap = NC[C@H](N)C(=O)O

A word on the EC50: it is the concentration needed to bring the measured effect to its halfway point. Usually IC50 stands for the concentration needed to halve the response being measured. On to `CSCC[C@H](NC(=O)[C@@H]1CCCN1C(=O)CNC(=O)[C@H](CCCCN)NC(=O)[C@H](C)NC(=O)[C@H](CO)NC(=O)[C@H](CC(C)C)NC(=O)[C@H](CCCNC(=N)N)NC(=O)[C@@H]1CCCN1C(=O)[C@H](CCCNC(=N)N)NC(=O)[C@@H]1CCC(=O)N1)C(=O)N1CCC[C@H]1C(=O)N[C@@H](Cc1ccccc1)C(=O)O` [Compound in Ex. 29], for which the EC50 at APJ [1] (read-out: EC50) was determined as 0.22 nM. The IC50 at APJ [2] (setting [3]) amounted to 0.21 nM.

Turning to `CC(C)C[C@H](NC(=O)[C@H](CCCNC(=N)N)NC(=O)[C@@H]1CCCN1C(=O)[C@@H](N)CCCNC(=N)N)C(=O)N[C@@H](CO)C(=O)N[C@@H](C)C(=O)N[C@@H](CCCNC(=N)N)C(=O)NCC(=O)N1CCC[C@H]1C(=O)N[C@@H](C)C(=O)N1CCC[C@H]1C(=O)N[C@@H](Cc1ccc(Cl)cc1)C(=O)O` [Compound in Ex. 53] (H-RPRLSARGPAP[Phe(4-Cl)]-OH; N-terminus and C-terminus assumed), the EC50 at APJ [1] (read-out: EC50) came out at 0.37 nM. The IC50 on APJ [2] (setting [3]) was 0.064 nM.

As for `CC(C)C[C@H](NC(=O)[C@H](CCCNC(=N)N)NC(=O)[C@@H]1CCCN1C(=O)[C@H](CCCNC(=N)N)NC(=O)[C@H](CCC(N)=O)NC(=O)[C@H](CCCNC(=N)N)NC(=O)[C@@H](N)CCCNC(=N)N)C(=O)N[C@@H](CO)C(=O)N[C@@H](C)C(=O)N[C@@H](CCCNC(=N)N)C(=O)NCC(=O)NCC(=O)N[C@@H](CC1CCCCC1)C(=O)O` [Compound in Ex. 62] (H-RRQRPRLSARGG[Cha]-OH; N-terminus and C-terminus assumed), the EC50 on APJ [1] (read-out: EC50) was 0.23 nM. Further, the IC50 on APJ [2] (setting [3]) is 0.14 nM.

For the molecule `CC(C)C[C@H](NC(=O)[C@H](CCCNC(=N)N)NC(=O)[C@@H]1CCCN1C(=O)[C@@H](N)CCCNC(=N)N)C(=O)N[C@@H](CO)C(=O)N[C@@H](Cc1c[nH]cn1)C(=O)N[C@@H](C)C(=O)NCC(=O)N1CCC[C@H]1C(=O)N[C@@H](CC1CCCCC1)C(=O)N1CCC[C@H]1C(=O)N[C@@H](Cc1ccc(Cl)cc1)C(=O)O` [Compound in Ex. 56] (H-RPRLSHAGP[Cha]P[Phe(4-Cl)]-OH; N-terminus and C-terminus assumed), the EC50 at APJ [1] (read-out: EC50) was determined as 0.58 nM. Further, on APJ [2] (setting [3]), the IC50 was 0.22 nM.

Regarding `CSCC[C@H](NC(=O)[C@@H]1CCCN1C(=O)CNC(=O)[C@H](CCCCN)NC(=O)[C@H](Cc1c[nH]cn1)NC(=O)[C@H](CO)NC(=O)[C@H](CC(C)C)NC(=O)[C@H](CCCNC(=N)N)NC(=O)[C@@H]1CCCN1C(=O)[C@H](CCCNC(=N)N)NC(=O)[C@H](CCCNC(=N)N)NC(=O)[C@H](CCCNC(=N)N)NC(=O)[C@@H](N)CCCNC(=N)N)C(=O)N1CCC[C@H]1C(=O)N[C@@H](Cc1ccccc1)C(=O)O` [Compound in Ex. 22], the EC50 at APJ [1] (read-out: EC50) is 0.32 nM. The IC50 at APJ [2] (setting [3]) turned out to be 0.12 nM.

As to `CC(C)C[C@H](NC(=O)[C@H](CCCNC(=N)N)NC(=O)[C@@H]1CCCN1C(=O)[C@H](CCCNC(=N)N)NC(=O)[C@H](CCC(N)=O)NC(=O)[C@H](CCCNC(=N)N)NC(=O)[C@@H](N)CCCNC(=N)N)C(=O)N[C@@H](CO)C(=O)N[C@@H](C)C(=O)N[C@@H](CCCNC(=N)N)C(=O)NCC(=O)N1CCOCC1` [Compound in Ex. 52] (H-RRQRPRLSARG-Morpholide; N-terminus assumed), the EC50 at APJ [1] (read-out: EC50) was 1.2 nM. Further, the IC50 at APJ [2] (setting [3]) turned out to be 0.26 nM.

On to `CC(C)C[C@H](NC(=O)[C@H](CCCNC(=N)N)NC(=O)[C@@H]1CCCN1C(=O)[C@H](CCCNC(=N)N)NC(=O)[C@H](CCC(N)=O)NC(=O)[C@H](CCCNC(=N)N)NC(=O)[C@@H](N)CCCNC(=N)N)C(=O)N[C@@H](CO)C(=O)N[C@@H](C)C(=O)N[C@@H](CCCNC(=N)N)C(=O)NCC(=O)N1CCC[C@H]1C(=O)O` [Compound in Ex. 19], for which the EC50 at APJ [1] (read-out: EC50) was 0.26 nM. The IC50 at APJ [2] (setting [3]) was found to be 0.071 nM.

On to `CC(C)C[C@H](NC(=O)[C@H](CCCNC(=N)N)NC(=O)[C@@H]1CCCN1C(=O)[C@H](CCCNC(=N)N)NC(=O)[C@H](CCC(N)=O)NC(=O)[C@H](CCCNC(=N)N)NC(=O)[C@@H](N)CCCNC(=N)N)C(=O)N[C@@H](CO)C(=O)N[C@@H](Cc1c[nH]cn1)C(=O)N[C@@H](CCCCN)C(=O)NCC(=O)N1CCC[C@H]1C(=O)N[C@@H](CC[S+](C)[O-])C(=O)O` (some centres unmarked) [Compound in Ex. 20], for which the EC50 on APJ [1] (read-out: EC50) was found to be 0.48 nM. At APJ [2] (setting [3]), the concentration for half-maximal inhibition (IC50) came out at 0.62 nM.

As for `CC(C)C[C@H](NC(=O)[C@H](CCCNC(=N)N)NC(=O)[C@@H]1CCCN1C(=O)[C@@H](N)CCCNC(=N)N)C(=O)N[C@@H](CO)C(=O)N[C@@H](CNC(=O)CCCCC(=O)O)C(=O)N[C@@H](CCCNC(=N)N)C(=O)NCC(=O)N1CCC[C@H]1C(=O)N[C@@H](CC1CCCCC1)C(=O)N1CCC[C@H]1C(=O)N[C@@H](Cc1ccc(Cl)cc1)C(=O)O` [Compound in Ex. 68, Arg-Pro-Arg-Leu-Ser-Dap(Adi)-Arg-Gly-Pro-Cha-Pro-Phe(Cl)] (H-RPRLS[Dap](Adipoyl)RGP[Cha]P[Phe(4-Cl)]-OH; N-terminus and C-terminus assumed), the EC50 on APJ [1] (read-out: EC50) is 0.42 nM. For the same molecule, at APJ [2] (setting [3]), the IC50 was found to be 0.13 nM.

In the case of `CSCC[C@H](NC(=O)[C@@H]1CCCN1C(=O)CNC(=O)[C@H](CCCCN)NC(=O)[C@H](CC(C)C)NC(=O)[C@H](CO)NC(=O)[C@H](CC(C)C)NC(=O)[C@H](CCCNC(=N)N)NC(=O)[C@@H]1CCCN1C(=O)[C@H](CCCNC(=N)N)NC(=O)[C@@H]1CCC(=O)N1)C(=O)N1CCC[C@H]1C(=O)N[C@@H](Cc1ccccc1)C(=O)O` [Compound in Ex. 38], the EC50 at APJ [1] (read-out: EC50) is 0.16 nM. Moreover, the IC50 at APJ [2] (setting [3]) amounted to 0.59 nM.

As for `CC(C)C[C@H](NC(=O)[C@H](CCCNC(=N)N)NC(=O)[C@@H]1CCCN1C(=O)[C@@H](N)CCCNC(=N)N)C(=O)N[C@@H](Cc1ccccc1)C(=O)N[C@@H](Cc1c[nH]cn1)C(=O)N[C@@H](CCCCN)C(=O)NCC(=O)N1CCC[C@H]1C(=O)N[C@@H](CC1CCCCC1)C(=O)N[C@@H](Cc1ccc(Cl)cc1)C(=O)O` [Compound in Ex. 37] (H-RPRLFHKGP[Cha][Phe(4-Cl)]-OH; N-terminus and C-terminus assumed), the EC50 on APJ [1] (read-out: EC50) was 0.43 nM. Moreover, the IC50 on APJ [2] (setting [3]) came to 0.54 nM.

Turning to `CC(C)C[C@H](NC(=O)[C@H](CCCNC(=N)N)NC(=O)[C@@H]1CCCN1C(=O)[C@@H](N)CCCNC(=N)N)C(=O)N[C@@H](CO)C(=O)N[C@@H](C)C(=O)N[C@@H](CCCNC(=N)N)C(=O)NCC(=O)N1CCC[C@H]1C(=O)N[C@@H](CC1CCCCC1)C(=O)N1CCC[C@H]1C(=O)N[C@@H](Cc1ccc2ccc3cccc4ccc1c2c34)C(=O)O` [Compound in Ex. 61] (H-RPRLSARGP[Cha]P[X1]-OH; N-terminus and C-terminus assumed), at APJ [1], the EC50 turned out to be 2.2 nM. On APJ [2], the IC50 came out at 0.56 nM.

With `CSCC[C@H](NC(=O)[C@@H]1CCCN1C(=O)CNC(=O)[C@H](CCCCN(C)C)NC(=O)[C@H](C)NC(=O)[C@H](CO)NC(=O)[C@H](CC(C)C)NC(=O)[C@H](CCCNC(=N)N)NC(=O)[C@@H]1CCCN1C(=O)[C@@H](N)CCCNC(=N)N)C(=O)N1CCC[C@H]1C(=O)N[C@@H](Cc1ccccc1)C(=O)O` [Compound in Ex. 64, Arg-Pro-Arg-Leu-Ser-Ala-Lys(Me)2-Gly-Pro-Met-Pro-Phe] (H-RPRLSA[Lys(Me2)]GPMPF-OH; N-terminus and C-terminus assumed), on APJ [1] (read-out: EC50), the EC50 came to 0.38 nM.

For RPRLSARGPM [Compound in Ex. 27], the IC50 at APJ [2] (setting [3]) was found to be 0.11 nM.
